We go through three molecules from patent US4443436A, “C-20-Modified macrolide derivatives of the macrolide antibiotics tylosin, desmycosin, macrocin, and lactenocin” (Eli Lilly and Company, priority 1982, dated 1984).

Converted amounts (≈) assume the structure as drawn. “And” between values parts separate entries of the source, which are not always exact repeats. Identical values can stand only once. Like-named read-outs stand apart in the source and are kept apart here.

Series [1] concerns Staphylococcus aureus X1.1. The series can be described thus: MIC, standard agar-dilution assay, Staphylococcus aureus X1.1. In kind it is cell-based. Conditions: Staphylococcus aureus, X1.1.
The subject of series [2] is Staphylococcus aureus V41. Description: MIC, standard agar-dilution assay, Staphylococcus aureus V41. The format is cell-based. Particulars: Staphylococcus aureus, V41.
Series [3] concerns Staphylococcus aureus X400. The series can be described thus: MIC, standard agar-dilution assay, Staphylococcus aureus X400. The format is cell-based. Conditions: Staphylococcus aureus, X400.
The test system of series [4] is Staphylococcus aureus S13E. Description: MIC, standard agar-dilution assay, Staphylococcus aureus S13E. In kind it is cell-based. Conditions: Staphylococcus aureus, S13E.
For series [5], the system named is Staphylococcus epidermidis EPI1. The series can be described thus: MIC, standard agar-dilution assay, Staphylococcus epidermidis EPI1. Conditions: Staphylococcus epidermidis, EPI1. The format is cell-based.
The test system of series [6] is Staphylococcus epidermidis EPI2. Description: MIC, standard agar-dilution assay, Staphylococcus epidermidis EPI2. In kind it is cell-based. Conditions: Staphylococcus epidermidis EPI2; agar dilution; read-out: MIC. (In agar dilution the substance is mixed into plates at graded concentrations.)
The subject of series [7] is Streptococcus pyogenes C203. The series can be described thus: MIC, standard agar-dilution assay, Streptococcus pyogenes C203. The format is cell-based. Particulars: Streptococcus pyogenes, C203.
The test system of series [8] is Streptococcus pneumoniae Park I. Description: microbe, parasite or virus in culture. The format is cell-based. Particulars: Streptococcus pneumoniae.
Series [9] deals with Streptococcus Group D X66. Description: MIC, standard agar-dilution assay, Streptococcus Group D X66. In kind it is cell-based.
A further series has as its system Streptococcus Group 9960. The series can be described thus: MIC, standard agar-dilution assay, Streptococcus Group 9960. Conditions: GROUP9960. In kind it is cell-based.
In series [10] the test system is Haemophilus influenzae Holt. Description: MIC, standard agar-dilution assay, Haemophilus influenzae Holt. The format is cell-based. Particulars: Haemophilus influenzae.
Series [11] concerns Haemophilus influenzae R252. The series can be described thus: MIC, standard agar-dilution assay, Haemophilus influenzae R252. Particulars: Haemophilus influenzae, R252. In kind it is cell-based.
A further series has as its system Staphylococcus aureus. The series can be described thus: MIC, broth-dilution microtiter test, Staphylococcus aureus. The format is cell-based. From the text: (§1) The MIC's in Table X were obtained using conventional broth-dilution microtiter tests.
Another series concerns Streptococcus bovis 80. The series can be described thus: MIC, broth-dilution microtiter test, Streptococcus bovis 80. Conditions: Streptococcus equinus, 80. In kind it is cell-based.
From the text: as §1

Series [12] deals with Pasteurella multocida 17E. The series can be described thus: MIC, broth-dilution microtiter test, Pasteurella multocida 17E. In kind it is cell-based. Particulars: Pasteurella multocida 17E; bovine isolate; broth-dilution microtiter; read-out: MIC.
From the text: as §1

In series [13] the test system is Pasteurella multocida 60A. Description: MIC, broth-dilution microtiter test, Pasteurella multocida 60A. The format is cell-based. Conditions: Pasteurella multocida 60A; avian isolate; broth-dilution microtiter; read-out: MIC.
From the text: as §1

Series [14] relates to Pasteurella hemolytica 22C. The series can be described thus: MIC, broth-dilution microtiter test, Pasteurella hemolytica 22C. Conditions: Pasteurella hemolytica 22C; broth-dilution microtiter; read-out: MIC. In kind it is cell-based.
From the text: as §1

Series [15] deals with Mycoplasma gallisepticum. The series can be described thus: MIC, broth-dilution microtiter test, Mycoplasma gallisepticum. The format is cell-based. Particulars: Mycoplasmoides gallisepticum.
From the text: as §1

A further series deals with Mycoplasma synoviae. The series can be described thus: MIC, broth-dilution microtiter test, Mycoplasma synoviae. In kind it is cell-based. Particulars: Mycoplasmopsis synoviae.
From the text: as §1

In another series the test system is Mycoplasma hyorhinis. Description: MIC, broth-dilution microtiter test, Mycoplasma hyorhinis. In kind it is cell-based. Particulars: Mycoplasma.
From the text: as §1

A further series has as its system Mycoplasma hyopneumoniae. Description: MIC, broth-dilution microtiter test, Mycoplasma hyopneumoniae. Conditions: Mesomycoplasma hyopneumoniae; Mycoplasma hyopneumoniae; broth-dilution microtiter; read-out: MIC. The format is cell-based.
From the text: as §1

The test system of series [16] is Streptococcus pyogenes C203. Description: In vivo protection of mice experimentally infected with S. pyogenes C203. Conditions: Streptococcus pyogenes, mice, doses given 1 and 4 hours post-infection. On the procedure:
The C-20 modified derivatives of this invention have shown in vivo antimicrobial activity against experimentally-induced infections in laboratory animals. When two doses of test compound were administered to mice experimentally infected with S. pyogenes C203, the activity observed was measured as an ED50 value [effective dose in mg/kg to protect 50% of the test animals: see Warren Wick, et al., J. Bacteriol. 81, 233-235 (1961)].

Series [17] has as its system Pasteurella multocida. The series can be described thus: Subcutaneous treatment of Pasteurella multocida-infected chicks. In kind it is in vivo, one-day-old chicks. Conditions: 30 mg/kg × 2, 1 and 4 hours post-challenge. An outline of the steps:
(§2)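 Dosing either by gavage at 1 and 5 h after infection, or subcutaneously at 30 mg/kg at 1 and 4 h after infection. Birds were day-old chicks infected s.c. with 0.1 ml of avian Pasteurella multocida culture (twenty-hour tryptose broth, diluted 10^-4).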

For series [18], the system named is Pasteurella multocida. The series can be described thus: Oral (gavage) treatment of Pasteurella multocida-infected chicks. The format is in vivo, one-day-old chicks. An outline of the steps:
as §2

In series [19] the test system is Mycoplasma gallisepticum. Description: Antimycoplasmal activity in chicks infected with Mycoplasma gallisepticum. The format is in vivo, two- to three-day-old chicks. Particulars: gavage five times, equivalent to 0.5 g/gal. Here is the method: In these tests infections were induced in chicks by injecting 0.2 ml of a broth culture of M. gallisepticum into the abdominal air sac of two- to three-day-old chicks. The compounds were administered by gavage five times at a dose equivalent to 0.5 g/gal (on the day of challenge once prior to and once following the challenge, two times on the next day and once on the third day). Twenty-one days post-infection, the chicks were weighed, a blood sample was taken, and the chicks were sacrificed. The presence or absence of air-sac lesions was recorded.

The next series is described as follows: in vivo. Conditions: dog, po, 15 mg/kg.

In general, ED50 refers to the midpoint of the dose-response relation. On to `CCC1OC(=O)CC(O)C(C)C(OC2OC(C)C(O)C(N(C)C)C2O)C(CC2Nc3ccccc3S2)CC(C)C(=O)C=CC(C)=CC1COC1OC(C)C(O)C(OC)C1OC` (stereo not shown) [Compound 75], for which the MIC in series [1] was 0.25 µg/mL (≈ 0.284 µM); in series [2], 0.25 µg/mL (≈ 0.284 µM); in series [3], 0.5 µg/mL (≈ 0.569 µM); in series [4], 0.25 µg/mL (≈ 0.284 µM); in [5], 0.25 µg/mL (≈ 0.284 µM); in [6], 0.12 µg/mL (≈ 0.136 µM). Also, the MIC in series [7] stood at 0.5 µg/mL (≈ 0.569 µM); in [8], 0.25 µg/mL (≈ 0.284 µM); in series [9], 2 µg/mL (≈ 2.27 µM); against Streptococcus Group 9960, 2 µg/mL (≈ 2.27 µM); in [10] it was 16 µg/mL (≈ 18.2 µM); in [11] it was 16 µg/mL (≈ 18.2 µM). Further, the MIC was determined as 0.78 µg/mL (≈ 0.887 µM) against Staphylococcus aureus; 3.12 µg/mL (≈ 3.55 µM) in the series with Streptococcus bovis 80; 25 µg/mL (≈ 28.4 µM) in series [12]; 25 µg/mL (≈ 28.4 µM) in series [13]; 25 µg/mL (≈ 28.4 µM) in series [14]; 1.56 µg/mL (≈ 1.77 µM) in the series on Mycoplasma gallisepticum [15]. Besides, the MIC amounted to 1.56 µg/mL (≈ 1.77 µM) against Mycoplasma synoviae, 50 µg/mL (≈ 56.9 µM) in the series with Mycoplasma hyorhinis and 0.19 µg/mL (≈ 0.216 µM) with Mycoplasma hyopneumoniae. Also, the ED50 in series [16] (C203, sc, subcutaneous, read-out: ED50, Subcutaneous) came out at 1.7 mg/kg; in series [16] (C203, oral, read-out: ED50, Oral), 30 mg/kg. The “Number of Deaths/Number Treated” value in the series with Pasteurella multocida [17] was 4/10. Besides, the “Number of Deaths/Number tested” value is 6/9 with Pasteurella multocida [18] (1.0 g/gal equivalent); 3/9 and 4/10 with Pasteurella multocida [18] (2.0 g/gal equivalent). Besides, the “Number with Antibodies/Number Tested” value in the series on Mycoplasma gallisepticum [19] (antibodies to M. gallisepticum, 21 days post-infection) was 9/9. Besides, in the series with Mycoplasma gallisepticum [19], the Mortality was 1/10. In the series with Mycoplasma gallisepticum [19] (21 days post-infection), the “Number with Air-Sac Lesions/Number Treated” value is listed as 3/10.
As usually defined, the Cmax is the maximum level reached in the sampled fluid or tissue. For the molecule `CCC1OC(=O)CC(O)C(C)C(OC2OC(C)C(O)C(N(C)C)C2O)C(CC=O)CC(C)C(=O)C=CC(C)=CC1COC1OC(C)C(O)C(OC)C1OC` (stereo not shown) [desmycosin], in “in vivo”, the concentration peaked (Cmax) at 500 ng/mL.
Same read-out and setting: then `CC[C@H]1OC(=O)[C@H](C)[C@@H](O[C@H]2C[C@@](C)(OC)[C@@H](O)[C@H](C)O2)[C@H](C)[C@@H](O[C@@H]2O[C@H](C)C[C@H](N(C)C)[C@H]2O)[C@](C)(O)C[C@@H](C)C(=O)[C@H](C)[C@@H](O)[C@]1(C)O` [erythromycin], with 1600 ng/mL.
